This is an account of results in US12480163B2, “Compositions and methods for identification assessment, prevention, and treatment of Ewing sarcoma using TP53 dependency biomarkers and modulators” (Dana-Farber Cancer Institute, Inc., priority 2018, dated 2025).

“Also recorded” adds a separate entry of the source.

One data set has as its target T1, Wip1 (Homo sapiens, UniProt O15297).
T1 construct: Whole-cell lysates were extracted in cell lysis buffer (Cell Signaling); endogenous in cells; host or cells: TP53 wild-type Ewing sarcoma cell lines
T1 sequence (O15297 1-605): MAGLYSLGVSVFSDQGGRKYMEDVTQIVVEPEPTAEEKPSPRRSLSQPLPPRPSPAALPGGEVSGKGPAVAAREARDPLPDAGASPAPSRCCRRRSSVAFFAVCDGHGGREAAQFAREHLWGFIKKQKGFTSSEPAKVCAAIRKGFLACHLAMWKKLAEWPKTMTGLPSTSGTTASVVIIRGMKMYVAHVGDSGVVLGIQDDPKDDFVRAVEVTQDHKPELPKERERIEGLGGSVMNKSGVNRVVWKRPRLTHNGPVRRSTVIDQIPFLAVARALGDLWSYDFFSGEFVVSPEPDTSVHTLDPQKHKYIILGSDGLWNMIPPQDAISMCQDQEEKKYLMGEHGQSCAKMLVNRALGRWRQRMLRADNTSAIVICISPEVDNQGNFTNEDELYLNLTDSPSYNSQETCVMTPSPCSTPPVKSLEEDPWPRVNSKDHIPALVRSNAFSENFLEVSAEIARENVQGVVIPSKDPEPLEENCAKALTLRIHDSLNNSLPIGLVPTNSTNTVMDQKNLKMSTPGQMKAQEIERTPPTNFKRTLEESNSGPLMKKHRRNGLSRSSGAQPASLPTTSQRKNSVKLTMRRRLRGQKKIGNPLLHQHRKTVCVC
In words: Western immunoblotting of Wip1 and pSer15-p53. Format: cell-based. To be noted: TC32 and CHLA258 cells, 2 d. The method, then:
Whole-cell lysates were extracted in cell lysis buffer (Cell Signaling) supplemented with EDTA-free protease inhibitors and PhosSTOP™ phosphatase inhibitors (Roche). Western immunoblotting was performed using standard techniques. Primary antibodies used included anti-MDM2 (ab178938; Abcam), anti-MDM2 (86934; Cell Signaling), anti-MDM4 (A300-287A; Bethyl Laboratories), anti-p53 (2527S; Cell Signaling), anti-p21 (2946S; Cell Signaling), anti-Vinculin (18058; Abcam), anti-Wip1 (A300-664A; Bethyl Laboratories), anti-pSer15-p53 (9284; Cell Signaling), anti-USP7 (A300-033A; Bethyl Laboratories), and anti-Tubulin (cp06; CalBiochem).
(A western blot detects proteins with antibodies after separation by electrophoresis.)

The test system of the next data set is TP53 knockout cells. The data set can be described thus: CellTiter-Glo cell viability assay, TP53 knockout cells. Format: cell-based. The method, then:
Lentivirus was produced by transfecting HEK-293T cells with the pLentiV2 vector (Addgene plasmid 52961) and the packaging plasmids pCMV8.9 and pCMV-VSVG according to the FuGENER 6 (Roche) protocol. For lentiviral transduction, Ewing sarcoma cells were incubated with 2 ml of virus and 8 μg/ml of polybrene (Sigma-Aldrich). Cells were selected in puromycin (Sigma-Aldrich) 48 h after infection for single knockout experiments. For dual knockout experiments, PPM1D, USP7, and MDM4 sgRNA sequences were cloned into a LentiV2 vector with a blasticidin selection marker (Addgene plasmid 83480).
d. sgRNA Sequences sgRNAs were designed using the Broad Institute's sgRNA designer tool. The following sequences were used as control or to target the respective genes: control sgRNA, 5′-[…]-3′ (SEQ ID NO: 125); sgMDM2 2: 5′-[…]-3′ (SEQ ID NO: 126); sgMDM2 5: 5′-[…]-3′ (SEQ ID NO: 127); sgMDM4 4: 5′-[…]-3′ (SEQ ID NO: 128); sgMDM4 6: 5′-[…]-3′ (SEQ ID NO: 129); sgUSP7 1: 5′-[…]-3′ (SEQ ID NO: 130); sgUSP7 2: 5′-ACCATACCCAAATTATTC CG-3′ (SEQ ID NO: 131); sgPPMID 1: 5′-[…]-3′ (SEQ ID NO: 132); sgPPMID 2: 5′-[…]-3′ (SEQ ID NO: 133); sgTP53 1: 5′-[…]-3′ (SEQ ID NO: 134); sgTP53 2: 5′-[…]-3′ (SEQ ID NO: 135); sgTP53 4: 5′-[…]-3′ (SEQ ID NO: 136); and sgTP53 5: 5′-[…]-3′ (SEQ ID NO: 137). e. Protein Extraction and Immunoblotting
(§1) Cell viability was assessed using the CellTiter-Glo® Luminescent Cell Viability Assay (Promega). Viability assays were performed after Ewing sarcoma cell lines were infected with sgRNAs targeting TP53, MDM2, MDM4, PPM1D, or USP7 or treated with ATSP-7041, ATSP-7342, GSK2830371, P5091, XL-188, or vehicle control.
For orientation: ATP-based viability assays read luminescence as a measure of living cells.

The next data set relates to PDX tumors (HSJD-ES-002). In words: Ewing sarcoma PDX (HSJD-ES-002) anti-tumor efficacy study. Format: in vivo, mice. The protocol:
j. Ewing Sarcoma Xenograft Studies
For anti-tumor efficacy studies, tumor xenografts were established in 15 nude female mice by implanting three million TC32 cells into the right flank. Animals were randomized to either 20 d of treatment with 30 mg/kg q.o.d. IV ATSP-7041 (n=8) or vehicle (n=7) for a total of 10 doses. Treatment was started when tumors reached 100-200 mm3. Tumor volumes were measured with calipers twice a week. For PDX studies, tumor fragments were implanted into the right flank of nude female mice by minor surgery. After tumor engraftment, studies were performed as described for TC32 xenograft studies.
For in vivo studies, ATSP-7041 was prepared using the following protocol: mPEG-DSPE (Nanocs) was dissolved in chloroform and dried by a rotary evaporator. ATSP-7041 was dissolved in 1 M NaOH and diluted 100-fold in 10 mM histidine-buffered saline to a final concentration of 3 mg/ml. This mixture was added to the dried lipid film to a final mPEG-DSPE concentration of 50 mg/ml and final pH 7. The film was rehydrated by brief sonication and heating in a 50° C. water bath. The mixture was then subjected to five freeze-thaw cycles in liquid nitrogen and 40° C. water, respectively, and the solution passed 10 times through an Avanti Mini-Extruder Set (Avanti Polar Lipids) equipped with a 800-nm filter (Whatman).

The test system of data set [1] is TP53 wild-type Ewing sarcoma cell lines. The data set can be described thus: CellTiter-Glo cell viability assay, TP53 wild-type Ewing sarcoma cell lines. It is filed as cell-based. The note with it: TP53 wild-type Ewing sarcoma cell lines, treated for 3 d, micromolar concentrations. The method, then: as §1
Data set [2] has as its system TP53 mutated Ewing sarcoma cell lines. The data set can be described thus: CellTiter-Glo cell viability assay, TP53 mutated Ewing sarcoma cell lines. It is filed as cell-based. To be noted: treated for 3 d. The method, then: as §1

Turning to `CC(=O)N[C@@H](CC(C)C)C(=O)N[C@H](C(=O)N[C@@H](Cc1ccccc1)C(=O)N[C@]1(C)CCCCCCC=CCCC[C@@](C)(C(=O)N[C@@H](CO)C(=O)N[C@@H](C)C(=O)N[C@@H](C)C(N)=O)NC(=O)[C@H](CC2CCC2)NC(=O)[C@H](CCC(N)=O)NC(=O)[C@H](C)NC(=O)[C@H](Cc2c[nH]c3ccccc23)NC(=O)[C@H](Cc2ccc(O)cc2)NC(=O)[C@H](CCC(=O)O)NC1=O)[C@@H](C)O` [ATSP-7041, Ac-Leu17-Thr-Phe-cyclo(R8-Glu-Tyr-Trp-Ala-Gln-Cba-S5)-Ser-Ala-Ala30-NH2], the “phosphorylation of p53 at Serine 15, combination of ATSP-7041 and GSK2830371” value at Wip1 is “increased phospho-Serine15-p53 protein levels; also recorded: increased the phosphorylation of p53 at Serine 15; also recorded: increases the level of pSer15 on p53 more than with either molecule alone”. For the same molecule, in the data set with TP53 knockout cells, the “effect of TP53 knockout on the cytotoxic effect of the compound (viability)” value is “fully rescues the cytotoxic effect”. The survival of mice entry with PDX tumors (HSJD-ES-002) (PDX HSJD-ES-002, 10 doses 30 mg/kg q.o.d. vs vehicle) is on record as “significantly extended”. In the data set with PDX tumors (HSJD-ES-002) (PDX HSJD-ES-002, 10 doses 30 mg/kg q.o.d. vs vehicle, 30 mg/kg), the “tumor growth (normalized tumor volume)” value is on record as “slowed significantly; also recorded: slowed in all mice”. Moreover, the complete tumor regression result in the data set on PDX tumors (HSJD-ES-002) (PDX HSJD-ES-002, one mouse of n=8, observed time frame of 227 d) is “complete tumor regression without recurrence; also recorded: one out of eight mice achieved complete and sustained remission of disease”. For the same molecule, the results for the “cell viability, normalized to vehicle control” value in data set [1] and in data set [2] were “selectively reduced the viability” and “resistant”, respectively.
